Experimental data: patent US8470813B2, “Thiazoline and oxazoline derivatives and their methods of use” (AbbVie Inc., priority 2006, dated 2013)
pEC50: −log10 of the molar value. Values belong to the compound of their own block, whether it stands above or below them.

Tests used:
α7 nAChRs [1] = target: T1, α7 nAChRs (Homo sapiens, UniProt P36544); experiment: High-throughput calcium flux (FLIPR) assay using IMR-32 cells expressing endogenous α7 nAChRs; type: cell-based
T1 construct: IMR-32 cells endogenous expressing α7 nAChRs; host or cells: IMR-32 neuroblastoma cells
T1 sequence (P36544 23-502): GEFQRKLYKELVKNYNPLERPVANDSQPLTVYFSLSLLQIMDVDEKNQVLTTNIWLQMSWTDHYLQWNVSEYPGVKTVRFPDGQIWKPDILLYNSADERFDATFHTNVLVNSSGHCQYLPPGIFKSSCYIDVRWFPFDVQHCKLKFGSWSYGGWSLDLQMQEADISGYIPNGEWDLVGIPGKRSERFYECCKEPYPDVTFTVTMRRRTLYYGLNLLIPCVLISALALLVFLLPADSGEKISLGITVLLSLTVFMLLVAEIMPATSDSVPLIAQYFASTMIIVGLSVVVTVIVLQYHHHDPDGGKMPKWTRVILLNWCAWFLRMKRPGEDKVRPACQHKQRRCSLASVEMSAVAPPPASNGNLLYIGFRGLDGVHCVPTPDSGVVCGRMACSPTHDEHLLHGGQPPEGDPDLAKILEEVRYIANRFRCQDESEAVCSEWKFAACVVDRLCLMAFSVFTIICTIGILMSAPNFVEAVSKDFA
Source text: (i) High-Throughput Calcium Flux Assays Using Cells Expressing Endogenous α7 nAChRs
As such, positive allosteric modulators can be identified or nicotinic acetylcholine receptor agonists can be identified by using IMR-32 cells that endogenously express various nicotinic receptors including α7 nAChRs. […] Accordingly, allosteric modulator compounds described herein can be identified using fluorescence-based throughput functional assay using cell lines such as IMR-32 neuroblastoma or primary dissociated neurons. Although cell types such as IMR-32 neuroblastoma and neurons are known to contain several nicotinic receptor subunits, α7 selective agonists in the present assay selectively stimulate calcium responses only in the presence of positive allosteric modulators. Any suitable selective α7 agonist can be used.
IMR-32 neuroblastoma cells (ATCC) were grown to confluency in 162 cm^2 tissue culture flasks in minimum essential media supplemented with 10% FBS and 1 mM sodium pyruvate, 0.1 mM non-essential amino acids and 1% antibiotic-antimycotic. The cells were then dissociated using cell dissociation buffer and 40 μl of 3.5×10^5 cells/ml cell suspension was plated (15,000 cells/well) into black plates with clear bottom and maintained for 48 hours in a tissue culture incubator at 37° C. under an atmosphere of 5% CO2: 95% air. […] Calcium flux was measured using calcium-3 assay kit (Molecular Devices, Sunnyvale, Calif.) or fluo-4. A stock solution of the dye was prepared by dissolving each vial supplied by the vendor in Hank's balanced salt solution buffer (HBSS) containing 20 mM HEPES. The stock solution was diluted 1:20 using the same buffer before use. The growth media was removed from the cells and loaded with 45 μl of the dye and incubated at room temperature for three hours. Fluorescence measurements were read simultaneously from all the wells by a Fluorometic Imaging Plate Reader (FLIPR) at an excitation wavelength of 480 nm and an emission wavelength of 520 nm. Baseline fluorescence was measured for the first 10 seconds at which 5× concentrations of modulator/test compounds were added to the cell plate and incubated for three minutes. The fluorescence intensity was captured every second for the first 1 minute followed by every 5 seconds for an additional 2 minutes. This procedure was followed by 20 μl of 4× concentration of agonist and readings were taken for a period of three minutes as described above.

α7 nAChRs [2] = target: T2, α7 nAChRs (Rattus norvegicus, UniProt Q05941); experiment: High-throughput phospho-ERK assay (in-cell western) using PC-12 cells expressing endogenous α7 nAChRs; type: cell-based; conditions: in presence of selective α7 agonist, FIG. 4
T2 construct: cells expressing endogenous α7 nAChRs without the need for overexpressing recombinant receptors; host or cells: PC-12 rat pheochromocytoma cells
T2 sequence (Q05941 23-502): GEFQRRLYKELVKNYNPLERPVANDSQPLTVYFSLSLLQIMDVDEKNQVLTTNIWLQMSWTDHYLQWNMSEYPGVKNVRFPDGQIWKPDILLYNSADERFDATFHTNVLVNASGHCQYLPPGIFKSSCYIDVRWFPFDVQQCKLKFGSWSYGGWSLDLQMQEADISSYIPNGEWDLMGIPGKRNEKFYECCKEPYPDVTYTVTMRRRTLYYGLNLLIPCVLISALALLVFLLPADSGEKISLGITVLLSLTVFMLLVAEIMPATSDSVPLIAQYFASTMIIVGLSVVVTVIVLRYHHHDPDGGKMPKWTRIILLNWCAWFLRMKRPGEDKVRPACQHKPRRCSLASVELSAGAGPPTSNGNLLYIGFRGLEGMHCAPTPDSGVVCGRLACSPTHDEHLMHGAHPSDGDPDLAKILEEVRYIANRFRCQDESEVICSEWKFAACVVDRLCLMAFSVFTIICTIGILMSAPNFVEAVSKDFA
Protocol: To determine the effectiveness of compounds of formula (I) or (II), as allosteric modulators, the compounds of the invention were evaluated according to two high-throughput functional assays using (i) IMR-32 cells endogenous expressing α7 nAChRs and measuring Ca^2+ flux or membrane potential changes utilizing the fluorescence-imaging plate reader (FLIPR)-based assays and (ii) measurement of phospho-ERK activity using western blot assays. These assays allow for higher throughput screening of positive allosteric modulators using cells or cell lines expressing endogenous α7 nAChRs.
(ii) High-Throughput Phospho-Erk Assays Using Cells Expressing Endogenous α7 nAChRs
Rat pheochromocytoma (PC-12) cells (ATCC, Manassas, Va.) were cultured and maintained in F-12K media supplemented with 15% horse serum, 2.5% fetal calf serum, and 2 mM L-Glutamine in poly-D lysine coated dishes at 37° C. and 5% CO2. […]
PC-12 cells are treated for 10 minutes at 37° C. with test positive allosteric modulator compounds and then challenged with a selective α7 agonist for 5 minutes at 37° C. in a final volume of 100 μl/well, unless otherwise indicated. […] Well intensities were quantitated and phospho-ERK signals were normalized to total ERK signals by the Odyssey software. […]

calcium fluorescence response, modulator co-applied with agonist (α7 nAChRs [1]; IMR-32 cells, Example 9 10 μM with agonist 4-(5-phenyl-[1,3,4]oxadiazol-2-yl)-1,4-diaza-bicyclo[3.2.2]nonane, FIG. 1): evoked calcium fluorescence response
calcium response, modulator alone (α7 nAChRs [1]; IMR-32 cells, absence of α7 nAChR agonist, FIG. 2): did not trigger calcium responses
pEC50 (α7 nAChRs [1]; IMR-32 neuroblastoma cells, in presence of agonist 4-(5-phenyl-[1,3,4]oxadiazol-2-yl)-1,4-diaza-bicyclo[3.2.2]nonane, FIG. 2, read-out: EC50 value of the modulator (calcium fluorescence response)): 5.52
SMILES: Cc1cn(-c2ccc3c(c2)OC(F)(F)O3)/c(=N/C(=O)N(C)C)s1 [Example 9, N′-[(2Z)-3-(2,2-difluoro-1,3-benzodioxol-5-yl)-5-methyl-1,3-thiazol-2(3H)-ylidene]-N,N-dimethylurea]
ERK phosphorylation, concentration-response (α7 nAChRs [2]): evoke concentration-dependent increases in ERK phosphorylation

SMILES: c1ccc(-c2nnc(N3CCN4CCC3CC4)o2)cc1 [4-(5-Phenyl-[1,3,4]oxadiazol-2-yl)-1,4-diaza-bicyclo[3.2.2]nonane, reference compound]
calcium response, agonist alone (α7 nAChRs [1]; IMR-32 cells, absence of allosteric modulator, FIG. 3): did not trigger calcium responses

SMILES: CCN1C[C@]2(COC(=O)c3ccccc3N3C(=O)C[C@H](C)C3=O)CC[C@H](OC)[C@@]34[C@@H]5C[C@H]6[C@H](OC)[C@@H]5[C@](O)(C[C@@H]6OC)[C@@](O)([C@@H](OC)[C@H]23)[C@@H]14 [methyllycaconitine, reference compound]
effect of α7 selective antagonist on agonist plus modulator calcium response (α7 nAChRs [1]; IMR-32 cells): abolishes response
